Source: ChEMBL document CHEMBL2413072, “Synthesis and in vitro anticancer studies of novel C-2 arylidene congeners of lantadenes” (2013)

How the values were obtained:
Assay type in all cases: functional
[1] = tested on: KM12; experiment: Growth inhibition of human KM12 cells by sulforhodamine B assay
[2] = tested on: SF-539; experiment: Growth inhibition of human SF539 cells assessed as cell growth at 10^-7 M by sulforhodamine B assay; details: read-out: Activity
[3] = tested on: OVCAR-8; experiment: Growth inhibition of human OVCAR8 cells assessed as cell growth at 10^-4 M by sulforhodamine B assay; details: read-out: Activity
[4] = tested on: UACC-257; experiment: Growth inhibition of human UACC257 cells by sulforhodamine B assay
[5] = tested on: Malme-3M; experiment: Growth inhibition of human MALME-3M cells assessed as cell growth at 10^-8 M by sulforhodamine B assay; details: read-out: Activity
[6] = tested on: NCI-H23; experiment: Growth inhibition of human NCI-H23 cells assessed as cell growth at 10^-6 M by sulforhodamine B assay; details: read-out: Activity
[7] = tested on: HCT-116; experiment: Growth inhibition of human HCT116 cells by sulforhodamine B assay
[8] = tested on: K562; experiment: Growth inhibition of human K562 cells assessed as cell growth at 10^-4 M by sulforhodamine B assay; details: read-out: Activity
[9] = tested on: RXF 393; experiment: Growth inhibition of human RXF393 cells assessed as cell growth at 10^-6 M by sulforhodamine B assay; details: read-out: Activity
[10] = tested on: SR; experiment: Growth inhibition of human SR cells assessed as cell growth at 10^-8 M by sulforhodamine B assay; details: read-out: Activity
[11] = tested on: MDA-MB-231; experiment: Growth inhibition of human MDA-MB-231 cells assessed as cell growth at 10^-8 M by sulforhodamine B assay; details: read-out: Activity
[12] = tested on: M14; experiment: Growth inhibition of human M14 cells assessed as cell growth at 10^-6 M by sulforhodamine B assay; details: read-out: Activity
[13] = tested on: A498; experiment: Growth inhibition of human A498 cells assessed as cell growth at 10^-7 M by sulforhodamine B assay; details: read-out: Activity
[14] = tested on: OVCAR-5; experiment: Growth inhibition of human OVCAR5 cells assessed as cell growth at 10^-7 M by sulforhodamine B assay; details: read-out: Activity
[15] = tested on: SNB-75; experiment: Growth inhibition of human SNB75 cells by sulforhodamine B assay
[16] = tested on: SF-268; experiment: Growth inhibition of human SF268 cells assessed as cell growth at 10^-7 M by sulforhodamine B assay; details: read-out: Activity
[17] = tested on: UACC-62; experiment: Growth inhibition of human UACC62 cells assessed as cell growth at 10^-8 M by sulforhodamine B assay; details: read-out: Activity
[18] = tested on: OVCAR-4; experiment: Growth inhibition of human OVCAR4 cells assessed as cell growth at 10^-8 M by sulforhodamine B assay; details: read-out: Activity
[19] = tested on: CAKI-1; experiment: Growth inhibition of human CAKI-1 cells assessed as cell growth at 10^-4 M by sulforhodamine B assay; details: read-out: Activity
[20] = tested on: SF-539; experiment: Growth inhibition of human SF539 cells assessed as cell growth at 10^-4 M by sulforhodamine B assay; details: read-out: Activity
[21] = tested on: DU-145; experiment: Growth inhibition of human DU145 cells assessed as cell growth at 10^-7 M by sulforhodamine B assay; details: read-out: Activity
[22] = tested on: UO-31; experiment: Growth inhibition of human UO31 cells assessed as cell growth at 10^-8 M by sulforhodamine B assay; details: read-out: Activity
[23] = read-out: LC50 (the source's name)
[24] = read-out: pLC50 (the source's name) (converted)

In the case of `CC(C)=CC(=O)O[C@@H]1CC(C)(C)C[C@H]2C3=CC[C@@H]4[C@@]5(C)CCC(=O)C(C)(C)[C@@H]5CC[C@@]4(C)[C@]3(C)CC[C@@]12C(=O)O`, the GI50 ([1]; read-out: GI50) is reported as 0.879 µM, the LC50 (50% net cell kill) ([1]; read-out: LC50) is reported as 59.3 µM and the TGI ([1]; read-out: TGI) is reported as 15.3 µM. For the same molecule, the GI50 ([1]; read-out: pGI50 (converted)) was 0.871 µM, the LC50 (50% net cell kill) ([1]; read-out: pLC50 (converted)) was 58.9 µM and the TGI ([1]; read-out: pTGI (converted)) was 15.5 µM. It also gave a growth at 0.1 µM [2] of 91%, a growth at 100 µM [3] of 11% and a GI50 ([4]; read-out: GI50) of 4.98 µM. It also gave a CC50 [4, 23] of over 100 µM, a TGI ([4]; read-out: TGI) of 50.6 µM and a GI50 ([4]; read-out: pGI50 (converted)) of 5.01 µM. The CC50 [4, 24] was over 100 µM, the TGI ([4]; read-out: pTGI (converted)) was 50.1 µM and the growth at 0.01 µM [5] was 94%. For the same molecule, the growth at 1 µM [6] was 88%, the GI50 ([7]; read-out: GI50) was 2.35 µM and the LC50 ([7]; read-out: LC50) was over 100 µM. It also gave a TGI ([7]; read-out: TGI) of 53.5 µM, a GI50 ([7]; read-out: pGI50 (converted)) of 2.34 µM and an LC50 ([7]; read-out: pLC50 (converted)) of over 100 µM. It also gave a TGI ([7]; read-out: pTGI (converted)) of 53.7 µM, a growth at 100 µM [8] of 15% and a growth at 1 µM [9] of 85%. The growth at 0.01 µM [10] was 109%, the growth at 0.01 µM [11] was 96% and the growth at 1 µM [12] was 87%. For the same molecule, the growth at 0.1 µM [13] was 80%, the growth at 0.1 µM [14] was 91% and the GI50 ([15]; read-out: GI50) was 7.71 µM. It also gave a CC50 [15, 23] of over 100 µM, a TGI ([15]; read-out: TGI) of 39.2 µM and a GI50 ([15]; read-out: pGI50 (converted)) of 7.76 µM. For the same molecule, the CC50 [15, 24] was over 100 µM, the TGI ([15]; read-out: pTGI (converted)) was 38.9 µM and the growth at 0.1 µM [16] was 94%. The growth at 0.01 µM [17] was 102%, the growth at 0.01 µM [18] was 99% and the growth at 100 µM [19] was -2%. The growth at 100 µM [20] was -50%, the growth at 0.1 µM [21] was 105% and the growth at 0.01 µM [22] was 88%.
